Laboratory results as given in PMC12311259, “Antifibrotic effects of specific targeting of the 5‐hydroxytryptamine 2B receptor (5‐HT2BR) in murine models and ex vivo models of scleroderma skin” (Arthritis & Rheumatology (Hoboken, N.j.), 2025).

Experiments:
[1] = Pharmacokinetic profile (no method given)
[2] = test system: cGvHD-induced skin fibrosis; experiment: Sclerodermatous cGvHD mouse model (B10.D2 to BALB/c), skin fibrosis incl. RNASeq and immunofluorescence of skin; type: in vivo
Method: AM1476 was dissolved in sterile distilled water for the ex vivo and in vivo experiments. A concentration of 30 μM was applied for the ex vivo experiment. For the in vivo experiments, 1, 3, or 10 mg/kg was administered orally once or twice daily.
The B10.D2→BALB/c (H‐2d) minor histocompatibility antigen–mismatched model was performed as described.[9], [10] Briefly, female BALB/c (H‐2d) mice were purchased from Janvier. Male B10.D2 (H‐2d) mice were initially purchased from Jackson Laboratory. All mice were maintained in specific pathogen‐free conditions with sterile pellet food and water and a normal day–night cycle. For isolation of unfractionated bone marrow cells, tibial and femoral bones were prepared under sterile conditions. Phosphate buffered saline (PBS) was used to flush bone marrow cells from bone marrow cavities. Subsequently, bone marrow cells were filtered through 70‐μm nylon meshes (BD Biosciences), followed by erythrocyte hemolysis. The remaining bone marrow cells were kept on ice until transplantation. Transplantation of bone marrow cells and splenocytes was performed as follows: Recipient mice (BALB/c [H‐2d]) eight weeks of age received total body irradiation with 750 cGy. Six hours after irradiation, all BALB/c (H‐2d) recipients received bone marrow from either BALB/c (H‐2d) in a syngeneic transplantation manner or B10.D2 (H‐2d) in an allogeneic transplantation manner. For transplantation, 5 × 10[6] splenocytes and 2 × 10[6] bone marrow cells from donor mice were resuspended in 0.2 mL of PBS and injected via tail veins.[9], [10] To reflect the clinical situation with treatment initiation upon clinical signs of chronic graft‐versus‐host disease (cGvHD), treatment was started 21 days after bone marrow transplantation (BMT) and thus after the first clinically detectable manifestations of cGvHD in allogeneically transplanted mice. The outcome of treatment was analyzed seven weeks after transplantation. Eight mice per group were analyzed.
Mice were monitored clinically on a daily basis for behavior, activity, texture of the fur, weight, and consistency of the stool.[13] After the mice were killed, a gross macroscopic evaluation of the lungs and the skin was performed.
Recipient mice were clinically monitored on a daily basis from the day of transplantation to the indicated days after transplantation to determine the incidence and severity of cutaneous cGvHD as well as mobility, diarrhea, and weight loss.[10], [14] The following scoring system for cutaneous cGvHD was used: healthy appearance = 0; skin lesions with alopecia <1 cm[2] in area = 1; skin lesions with alopecia 1 to 2 cm[2] in area = 2; and skin lesions with alopecia >2 cm[2] in area = 3.
Skin samples were fixed in 4% formalin for six hours and embedded in paraffin. Five‐micrometer sections were cut and stained with hematoxylin and eosin (H&E). The dermal thickness was quantified on H&E‐stained sections using images captured with a light microscope (Nikon eclipse 80i) at 100‐fold magnification by manually measuring the distance between the epidermal‐dermal junction and the dermal‐subcutaneous fat junction at four sites per mouse.[15], [16] For lung samples, the whole left lung was fixed in 4% formalin for six hours and embedded in paraffin. Five‐micrometer sections were cut and stained with trichrome and sirius red. Histologic readouts were evaluation of the fibrotic area as the percentage of the total lung area in sirius red–stained sections (two sections per mouse) and quantification of pulmonary changes using the Ashcroft score (four sections per mouse).[17], [18]
The amount of collagen protein in skin and lung samples was determined by hydroxyproline assay.[19], [20] After digestion in 6 M HCl for three hours at 120°C, the pH of the samples was adjusted to a pH range of 6–7 with 6 M NaOH. Afterward, 0.06 M chloramine T was added to each sample and incubated for 20 minutes at room temperature.

[3] = biological target: T1, Serotonin (5-Hydroxytryptamine) 5-HT1B (hu) (Homo sapiens, UniProt P28222); experiment: Receptor binding, Eurofins Panlabs 271200
T1 construct: Eurofins Panlabs 271200
T1 sequence (P28222 whole entry): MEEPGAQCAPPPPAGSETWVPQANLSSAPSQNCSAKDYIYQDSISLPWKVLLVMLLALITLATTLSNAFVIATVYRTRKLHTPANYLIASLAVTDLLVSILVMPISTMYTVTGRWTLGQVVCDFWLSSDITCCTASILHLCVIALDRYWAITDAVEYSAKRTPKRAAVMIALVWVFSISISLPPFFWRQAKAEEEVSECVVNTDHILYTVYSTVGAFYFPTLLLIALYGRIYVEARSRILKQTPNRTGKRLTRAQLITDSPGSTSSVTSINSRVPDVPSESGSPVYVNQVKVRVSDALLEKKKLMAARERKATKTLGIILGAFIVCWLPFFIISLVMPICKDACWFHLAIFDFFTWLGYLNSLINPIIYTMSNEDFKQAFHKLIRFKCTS
From the text: (§1) Effects were considered significant if AM1476's mean value was three or more SDs above the vehicle control mean in the agonist assay or three or more SDs below the positive control agonist (5‐nM α‐methylserotonin) mean in the antagonist assay. AM1476 was screened for selectivity against approximately 200 targets using a Eurofins Panlabs Spectrum screen panel including enzymatic and receptor binding assays.

Adrenergic β2 (hu) = biological target: T2, Adrenergic β2 (hu) (Homo sapiens, UniProt P07550); experiment: Functionality assay, Adenylyl Cyclase, Eurofins Panlabs 302150; type: cell-based
T2 construct: Eurofins Panlabs 302150
T2 sequence (P07550 whole entry): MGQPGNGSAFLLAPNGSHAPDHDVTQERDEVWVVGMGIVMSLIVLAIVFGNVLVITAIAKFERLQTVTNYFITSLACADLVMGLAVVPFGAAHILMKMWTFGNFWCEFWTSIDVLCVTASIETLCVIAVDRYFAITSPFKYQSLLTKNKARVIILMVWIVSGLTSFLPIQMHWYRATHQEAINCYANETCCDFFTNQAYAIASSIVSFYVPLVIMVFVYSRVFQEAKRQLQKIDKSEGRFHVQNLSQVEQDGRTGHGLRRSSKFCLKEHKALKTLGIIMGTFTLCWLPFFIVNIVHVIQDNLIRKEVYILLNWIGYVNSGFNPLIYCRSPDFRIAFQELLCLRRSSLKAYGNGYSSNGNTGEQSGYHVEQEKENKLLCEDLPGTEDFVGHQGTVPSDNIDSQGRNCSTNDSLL
From the text: as §1

[4] = biological target: T3, Serotonin (5-Hydroxytryptamine) 5-HT6 (hu) (Homo sapiens, UniProt P50406); experiment: Receptor binding, Eurofins Panlabs 272200
T3 construct: 318000 (adenylyl cyclase)
T3 sequence (P50406 whole entry): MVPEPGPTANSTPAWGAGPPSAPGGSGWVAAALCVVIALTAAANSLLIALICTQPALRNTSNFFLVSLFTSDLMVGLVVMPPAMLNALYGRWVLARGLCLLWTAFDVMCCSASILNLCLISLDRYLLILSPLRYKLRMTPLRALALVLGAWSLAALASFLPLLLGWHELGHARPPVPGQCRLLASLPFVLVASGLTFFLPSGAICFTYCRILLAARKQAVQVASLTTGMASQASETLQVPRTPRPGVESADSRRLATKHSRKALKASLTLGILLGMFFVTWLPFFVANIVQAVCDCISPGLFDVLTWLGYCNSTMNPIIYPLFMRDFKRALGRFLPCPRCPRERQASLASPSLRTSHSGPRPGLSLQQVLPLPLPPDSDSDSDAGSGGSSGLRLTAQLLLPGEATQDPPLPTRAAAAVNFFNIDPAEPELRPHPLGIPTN
From the text: as §1

[5] = biological target: T4, Serotonin (5-Hydroxytryptamine) 5-HT3 (hu) (Homo sapiens, UniProt P46098); experiment: Receptor binding, Eurofins Panlabs 271910
T4 construct: Eurofins Panlabs 271910
T4 sequence (P46098 24-478): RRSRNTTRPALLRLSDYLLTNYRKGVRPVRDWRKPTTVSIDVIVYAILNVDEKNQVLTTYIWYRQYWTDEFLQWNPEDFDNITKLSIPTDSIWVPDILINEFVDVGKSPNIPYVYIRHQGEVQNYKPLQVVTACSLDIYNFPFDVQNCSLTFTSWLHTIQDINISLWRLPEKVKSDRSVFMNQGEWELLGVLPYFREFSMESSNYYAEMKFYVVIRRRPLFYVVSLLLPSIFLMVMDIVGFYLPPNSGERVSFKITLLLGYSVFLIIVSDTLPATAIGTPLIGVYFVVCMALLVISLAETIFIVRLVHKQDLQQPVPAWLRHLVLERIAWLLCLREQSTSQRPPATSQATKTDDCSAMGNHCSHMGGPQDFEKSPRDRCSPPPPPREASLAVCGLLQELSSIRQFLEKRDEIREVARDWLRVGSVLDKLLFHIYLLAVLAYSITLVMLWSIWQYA
From the text: as §1

Mouse 5-HT2BR = biological target: T5, Mouse 5-HT2BR (Mus musculus, UniProt Q02152); experiment: Calcium influx functionality assay (FLIPR) in CHO-K1 cells expressing mouse 5-HT2BR; type: cell-based; settings: agonist 5 nM α-methylserotonin
T5 construct: host or cells: CHO-K1
T5 sequence (Q02152 whole entry): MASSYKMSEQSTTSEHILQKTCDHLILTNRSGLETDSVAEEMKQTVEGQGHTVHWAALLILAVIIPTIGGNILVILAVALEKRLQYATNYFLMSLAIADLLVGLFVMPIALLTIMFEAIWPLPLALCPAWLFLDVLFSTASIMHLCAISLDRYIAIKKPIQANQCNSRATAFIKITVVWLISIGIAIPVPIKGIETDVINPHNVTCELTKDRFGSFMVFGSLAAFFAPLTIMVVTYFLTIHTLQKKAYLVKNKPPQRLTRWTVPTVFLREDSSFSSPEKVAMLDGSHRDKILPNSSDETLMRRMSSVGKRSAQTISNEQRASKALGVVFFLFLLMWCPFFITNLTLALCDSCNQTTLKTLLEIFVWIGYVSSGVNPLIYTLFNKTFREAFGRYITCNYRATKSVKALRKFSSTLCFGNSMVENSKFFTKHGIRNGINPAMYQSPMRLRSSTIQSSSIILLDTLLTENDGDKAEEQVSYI
Method: The binding profile of AM1476 was evaluated for binding to human 5‐HT2AR, 5‐HT2BR, and 5‐HT2CR in radioligand binding assays using Chinese hamster ovary (CHO‐K1) cells overexpressing human receptors (in vitro assays 271650, 271700, and 271800; Eurofins Panlabs Discovery). AM1476 was evaluated at 0.1, 1, 10, 100, 1,000, and 10,000 nM (5‐HT2BR) or at 1, 10, 100, 1,000, and 10,000 nM (5‐HT2AR and 5‐HT2CR). Human 5‐HT2AR and 5‐HT2BR functionality was measured with homogeneous time‐resolved fluorescence quantification of IP1 accumulation in CHO‐K1 cells (in vitro assays 355250 and 355260). Compounds creating a ≥50% inhibition of 5‐HT (5 nM) induced fluorescence response specified receptor antagonist activity. 5‐HT2CR functionality was assessed with [35S] GTPγS for quantification of bound GTPγS. Compounds creating a ≥50% inhibition of 5‐HT (100 nM) induced [35S] GTPγS binding response specified receptor antagonist activity (in vitro assay 355200). AM1476 was evaluated at 0.1, 0.3, 1, 3, 10, 30, and 300 nM (5‐HT2BR) or 1, 10, 100, 1,000, and 10,000 nM (5‐HT2AR and 5‐HT2CR). […] Mouse 5‐HT2BR functionality was measured in a calcium influx assay (Charles River) in CHO‐KI cells expressing the mouse 5‐HT2BR using a calcium sensitive dye and a fluorescence imaging plate reader (FLIPRTETRA) instrument. AM1476 was evaluated at 0.3, 1, 3, 10, 30, 100, 300, and 1,000 nM. […]

[6] = treatment from day 21 after BMT, vs vehicle-treated mice seven weeks after BMT

Q: Which “distribution to the brain” value [1] does the source give for `C[C@@H]1CN(C(=N)N)N=C1c1ccc(F)cc1O` [AM1476] here?
A: no preference to distribute to the brain

Q: And the oral bioavailability [1]?
A: orally bioavailable

Q: What about the “antifibrotic effects, comparison of doses” value ([2]; 10 mg/kg bid and 10 mg/kg qd (comparable to each other) vs 1 mg/kg bid) of the same compound?
A: more pronounced than with 1 mg/kg bid

Q: What about the “hydroxyproline content, skin, vs mice killed after three weeks” value ([2]; 10 mg/kg qd) of the same compound?
A: significant reduction

Q: And the “number of CD45+ leukocytes in skin” value ([2]; all doses)?
A: none of the concentrations of AM1476 reduced

Q: What about the “myofibroblast counts vs mice killed three weeks after BMT” value ([2]; all three doses) of the same compound?
A: significantly lower

Q: What about the “tolerability (clinical examination, gross necropsy, histology)” value ([2]; all three doses (1 mg/kg bid, 10 mg/kg qd, 10 mg/kg bid), oral) of the same compound?
A: well tolerated without obvious signs of toxicity

Q: What about the “AAM (alternatively activated M2 macrophage) counts in the skin” value ([2]; all three doses, statistically significant for 10 mg/kg qd and 10 mg/kg bid) of the same compound?
A: reduction of AAM accumulation

Q: What about the “accumulation of hydroxyproline, skin” value [2, 6] of the same compound?
A: reduced

Q: What about the dermal thickening [2, 6] of the same compound?
A: reduced

Q: What about the “myofibroblast differentiation, skin” value [2, 6] of the same compound?
A: reduced

Q: What about the “% Inhibition at 10 µM, 5-HT1B (hu)” value [3] of the same compound?
A: 19%

Q: What about the IC50 (Adrenergic β2 (hu)) of the same compound?
A: 154 µM

Q: What about the “agonistic activity, Adrenergic β2” value (Adrenergic β2 (hu); at 300 µM) of the same compound?
A: No significant agonistic activity at 300 µM

Q: And the “% Inhibition at 1 µM, 5-HT6 (hu)” value ([4]; 1 µM (value in brackets))?
A: 51%

Q: What about the “% Inhibition at 10 µM, 5-HT6 (hu)” value ([4]; 10 µM) of the same compound?
A: 90%

Q: What about the “% Inhibition at 10 µM, 5-HT3 (hu)” value [5] of the same compound?
A: 14%

Q: What about the IC50 (Mouse 5-HT2BR) of the same compound?
A: 0.0115 µM
